`O=c1[nH]nc2n1C=Cc1ccccc1C2` yielded a melting point of 208 to 210 °C. `COc1cc(CCC(=O)C2=C(Cl)CCC2)cc(OC)c1OC`: the melting point stood at 93 °C.

The compound `[N-]=[N+]=NCC(=O)N1CC(c2ccccc2)c2ccccc21` (configuration not stated) gave a melting point of 72 to 73 °C. Turning to `CC(C)(C)C(=O)ON1C(C)(C)CC(OC(=O)CCCCCCCCC(=O)OC2CC(C)(C)N(OC(=O)C(C)(C)C)C(C)(C)C2)CC1(C)C`, the melting point fell in the range of 93 to 97 °C. For the compound `O=C1C(=O)c2ccccc2C2=C1SCC1(CCCNC1)O2` (configuration not stated), the melting point was 128 to 134 °C. The compound `COC(=O)c1ccc(CN([C@@H](CO)Cc2ccccc2)S(=O)(=O)c2ccc(Cl)cc2)cc1` displayed a melting point of 128 to 130 °C. Take `COC(=O)c1nnc(Cl)cc1Cl`: the melting point lay within 57 to 59.5 °C. `CCOC(=O)NN=Cc1nc(C)[nH]c1C` showed a melting point of 208 to 210 °C. As to `c1ccc(N2CCN(CCC3CCC(Nc4cccnc4)CC3)CC2)cc1` (configuration not stated), the melting point fell in the range of 159 to 160 °C. `N#CC1(CCCCCCCCCCCCC2(C#N)CC2)CC1` came in with a melting point of 45 to 46.9 °C. As for `C=Cn1cc(C(=O)OCC)c(=O)c2cc(F)c(Cl)cc21`, the figure is 146 to 149 °C; as for `COC(=O)c1cc(Nc2ccc(C)cc2)c(Nc2ccc(C)cc2)cc1C(=O)OC`, 170 to 172 °C; as for `Cc1nc(NC(=N)N)sc1C(=O)N1CC[C@@H](COCC(=O)O)C1`, 136 °C. The compound `CC1=NC(NC(=O)Nc2cccc(C)c2)C(=O)N(CC(=O)N(CC(C)C)CC(C)C)c2c(C)cccc21` (configuration not stated) registered a melting point of 227 to 228 °C. Then `CC(C)(C)c1cc(C(=NN)c2ccccc2)cc(C(C)(C)C)c1O`, with 97.4 to 117 °C; and `O=C(CCCl)Nc1ccc2[nH]c3ccc(NC(=O)CCCl)cc3c(=O)c2c1`, with more than 350 °C; and `CC(C)(C)OC(=O)N(CCc1ccc(C(F)(F)F)cc1)C1CCN(C[C@@]2(C)Cn3cc([N+](=O)[O-])nc3O2)CC1`, with 207 to 209 °C. In turn, `Cc1nc(Nc2ccccc2)sc1-c1ccnc(Nc2ccc(N3CCOCC3)cc2)n1` displayed a melting point of 290 to 291 °C.

With `CN1CCN=C1N1CCNCC1`, the melting point was in the range of 115 to 125 °C. Regarding `NC1=NC=C(c2ccc(C(F)(F)F)cc2)c2ccccc2C1`, the melting point is 167 to 170 °C. As for `CC(=O)SCCC(=O)[C@H]1CC[C@H]1C(=O)O` (relative stereo), the figure is 50 to 54 °C; as for `Cc1cc(F)ccc1NCC(=O)NCc1ccccc1`, 75 to 76 °C. The compound `Cc1ccc(S(=O)(=O)c2ccc3c(c2)c(CCN(C)C(=O)OC(C)(C)C)c(C)n3C)cc1` displayed a melting point of 129 to 133 °C. In the case of `O=C(c1ccccc1)c1ccc(Br)s1`, the melting point is 41 to 43 °C. `CCC#CN1CCC(O)(Cc2ccccc2)CC1` displayed a melting point of 51 to 53 °C. As for `c1ccc(-c2ccc(-c3nc(-c4ccc(-c5ccccc5)cc4)nc(-c4ccc(-c5ccccc5)cc4)n3)cc2)cc1`, the melting point was determined as 283 °C. `Cn1cc(CO)c(=O)c2ccc(C(C)(C)C)cc21`: the melting point lay in the range of 146 to 149 °C. For the compound `COC(=O)c1cc(C(=O)N(C)C)c2cc(Cc3ccc(F)cc3)cnc2c1O`, the melting point is 219 to 220 °C. `O=C1c2cccc3cccc(c23)N1CCCl` showed a melting point of 136 °C. As for `Cc1cc(N=Nc2ccccn2)ccc1-c1ccc(-c2ccc(N=Nc3ccccn3)cc2C)s1`, the figure is 152 to 153 °C. Regarding `COc1ccc(-c2cc(-c3ccoc3)c(C(=O)NCc3ccc(C(=O)NO)cc3)[nH]2)cc1`, the melting point was in the range of 189 to 190 °C.

Consider `CN(C)c1nc(C(F)(F)F)cc(=O)o1`, for which the melting point worked out at 79 °C. Then `CC1SCCCNC1=O` (configuration not stated), with 192 to 193 °C. In turn, `CCc1ccc(CSc2nc(C)cc(=O)[nH]2)nc1` displayed a melting point of 127 to 128 °C. Turning to `O=C1Nc2ccccc2SC1=Cc1ccc(Cl)cc1`, the melting point lay within 238 to 240 °C. On to `CCCCCCCCCCCCc1ccccc1C(SCCCC(=O)O)C(=O)O` (configuration not stated), for which the melting point lay in the range of 58 to 59 °C. Take `NC(CSCC(O)CN1CCOCC1)C(=O)O` (configuration not stated): the melting point was 200 °C. In turn, `CN(C(=O)c1ccc2nonc2c1)C1CCN(C(=O)OC(C)(C)C)CC1` displayed a melting point of 98 to 100 °C.

`N#Cc1cnn(-c2ccc(C(F)(F)F)cc2[N+](=O)[O-])c1N` came in with a melting point of 234 to 236 °C.

`CC(C)c1ccc(Cc2ccc(CC#N)n2C)cc1`: the melting point lay within 59 to 64 °C.

For the compound `CCc1nnc(-c2ccc3occ(-c4ccc(SC)cc4)c3c2)o1`, the melting point lay in the range of 164 to 165 °C. Turning to `ClCCCOc1ccc(-c2nc3ccccc3s2)cc1`, the melting point lay in the range of 141 to 143 °C. With `c1ccc2c(C3CCCc4cncn43)noc2c1` (configuration not stated), the melting point was 250 to 252 °C.

For `COC(=O)Nc1c(Cl)ccc(C)c1F`, the melting point fell in the range of 109 to 112 °C. Consider `CC(C)(C)OC(=O)C(CCC(N)=O)N1Cc2c(O)cccc2C1=O` (configuration not stated), for which the melting point was in the range of 198 to 200 °C.

With `COc1cccc2c(=O)c(SC)coc12`, the melting point was 113 to 115 °C.

`CCOC(=O)C1=C(COCC(=O)O)NC(C)=C(C(=O)OC)C1c1ccccc1Cl` (configuration not stated) gave a melting point of 150 to 154 °C.

Compound `CN1C(=O)C2(COc3cc4c(cc32)OCO4)c2c(Br)cccc21` (configuration not stated) had a melting point of 155 to 157 °C. In turn, `Nc1ccc(CCc2cscn2)cc1` came in with a melting point of 69 to 70 °C. `CCOC(=O)c1sc(SC(C)C)c2c1CCC(N=[N+]=[N-])C2=O` (configuration not stated): the melting point lay within 118 to 119 °C.

Take `COCOc1ccccc1-c1cc(-c2cccc(CN=[N+]=[N-])c2)c(C#N)c(NC(=O)c2cccs2)n1`: the melting point was 139 to 140 °C. In the case of `c1ccc(-c2cc3c(ccc4ccccc43)o2)cc1`, the melting point was in the range of 140 to 144 °C. As for `CCn1cc(-c2nnnn2C)c(=O)c2ccccc21`, the figure is 170 to 176 °C; as for `Cc1ccc(Oc2ccc(-n3cc(C(=O)O)cn3)cc2)c(O)c1`, 231 to 233 °C. Compound `COc1ccc(CCNC(=O)C(F)(F)F)cc1C=O` gave a melting point of 105 to 106 °C. For `CCn1ncc2cc3c(nc21)CCc1ccccc1C3=O`, the melting point fell in the range of 88 to 90 °C.

Take `COc1cccc(Oc2c(NS(=O)(=O)c3ccc(C(C)(C)C)cc3)ncnc2OCCOc2ncc(C(C)=O)cn2)c1`: the melting point was 142 to 144 °C. Compound `NC(=O)N1C(=O)C(=C(OC(=O)C=CC(=O)O)c2cccs2)c2cc(Cl)ccc21` returned a melting point of 198 to 200 °C. As for `CC(=O)Nc1ccccc1C(=O)Nc1cccc2cc(Br)cnc12`, the melting point is 206 °C.

`COC(=O)C(F)=CCS(=O)(=O)c1ccccc1` yielded a melting point of 104 to 105 °C.

Compound `O=C1CCC(c2ccc(N3C(=O)c4ccccc4C3=O)cc2)CC1` registered a melting point of 150 to 152 °C. The compound `CS(=O)(=O)N(CC1CCCCC1)CC(O)(Cn1cncn1)c1ccc(Cl)cc1Cl` (configuration not stated) gave a melting point of 168 to 169 °C.

For `CCOC(=O)NC(=NCCC(c1ccccc1)c1ccc(F)cc1)NCCCc1c[nH]cn1` (configuration not stated), the melting point worked out at 131 °C. `COc1cc2c(cc1OC)C1=NCC(CBr)N1C(SC)=N2` (configuration not stated) registered a melting point of 225 °C. On to `O=C(CN1CCN(C(c2ccc(F)cc2)c2ccc(F)cc2)CC1)NC1(C(=O)O)Cc2ccc(-c3ccc(Cl)cc3)cc2C1` (configuration not stated), for which the melting point stood at 184 °C. As for `CCC(=O)Nc1cccc(C)c1C(=O)O`, the figure is 152 °C; as for `CCc1ccc2c(c1)NC(=S)C2=O`, 213 to 214 °C. In the case of `COC(=O)[C@@H]1COC(=S)N1C(C)=O`, the melting point was 68 to 68.4 °C. Then `COc1cc(C)nc(NC(=O)NS(=O)(=O)c2c(C)nsc2OCC(F)(F)F)n1`, with 159 to 161 °C; and `CNc1cc(Cl)c(OC)c([N+](=O)[O-])c1OC`, with 57 °C; and `CCc1nc(C2CCCC2)n2nc(-c3ccc(OC)c(S(=O)(=O)N4CCOCC4)c3)[nH]c(=O)c12`, with 204 °C. With `COc1cc2c(c(Cl)c1Cl)C(=O)CC2`, the melting point lay in the range of 154 to 156 °C. As for `COc1ccc2c(c1)N(c1cccc(Cl)c1)C(=O)C2(C)NC(=O)OCc1ccccc1` (configuration not stated), the figure is 143 to 144 °C; as for `C#CC(C)N1CCNC1=O` (configuration not stated), 90 to 92 °C.

`OCc1ccc(Cc2ccc3c(c2)OCO3)o1`: the melting point is 68 to 69 °C. `CN(CCCCCCCC(F)(F)C(F)(F)F)CCCCCC1Cc2cc(O)ccc2C2C(F)CC3(C)C(O)CCC3C12` (configuration not stated) gave a melting point of 11 °C. The compound `Cc1cccc(-c2[nH]c(C(C)(C)C)nc2-c2cccc(-c3ccc(C(=O)NC4CCOCC4)cc3)c2)n1` yielded a melting point of 146 to 149 °C. `COC(=O)c1ccn2cc(C)nc2c1` returned a melting point of 149 °C. Then `O=C(O)Cc1ccc(CC2CCCCC2=NO)cc1` (configuration not stated), with 180 to 184 °C. Take `COc1cc2c3ccc(OC)c(OC)c3n(CCCc3ccccc3)c2cc1OC`: the melting point was 116 to 118 °C.

The compound `Cc1nc(N2CCN(Cc3ccccc3)S2(=O)=O)sc1C(=O)NCc1ccccc1` returned a melting point of 135 to 137 °C. With `O=C(O)c1cccc(OCCCCCCc2cccc(O)c2O)c1`, the melting point lay within 123 to 125 °C.

`CN(C(=O)OC(C)(C)C)c1cc(Oc2cccc(-c3ccccc3)c2)ccc1N` returned a melting point of 114 to 115 °C. As to `CCOC(=O)c1cc2cccnc2n1Cc1ccccc1`, the melting point lay in the range of 71 to 72 °C. Then `CC(=O)c1cc(O)c(C)cc1O`, with 144 to 146 °C; and `O=C1C(=O)c2ccccc2C2=C1SCC(CN1CCC(O)CC1)O2` (configuration not stated), with 98 to 100 °C; and `C=CCC1(CC=C)c2cccc(OC)c2C(=O)c2cccc(Cl)c21`, with 165 to 166 °C.

For the compound `COCCOc1ccc(/C=C/C(=O)O)c(OCc2ccc(Cl)cc2Cl)c1`, the melting point is 176 to 178 °C. In turn, `Clc1ccc(CCC(Cn2ccnc2)Sc2cccc(Cl)c2Cl)cc1` (configuration not stated) gave a melting point of 134 to 136 °C.

`O=C1c2ccccc2-c2c1[nH]c(=O)c1ccccc21` had a melting point of more than 300 °C. The compound `CC(C)(C)c1nc(-c2ccc(F)cc2)c(-c2ccc(S(C)(=O)=O)cc2)s1` registered a melting point of 144 to 145 °C.

With `CCc1ccc2scc(CCNC(C)=O)c2c1`, the melting point fell in the range of 87 to 88 °C.

Broadly, the melting point is the temperature, or range, at which the solid turns liquid.

The record behind these values is a melting point compilation (Tetko et al.; mined from patent text by program, amines drawn as free bases though some values may be those of a salt).
